# Results reported in article PMC5053523, “In Vitro Antibacterial Activity of Rhodanine Derivatives against Pathogenic Clinical Isolates” (PLoS ONE, 2016).
# Like-named read-outs stand apart in the source and are kept apart here.
# Legend:
# Assay type in all cases: cell-based
# Pseudomonas aeruginosa [1] = experiment: MIC with/without sub-MIC colistin, Pseudomonas aeruginosa
# Outline: (§1)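 Sub-MIC colistin or PMBN added to broth MIC tests of rhodanines and reference antibiotics against Gram-negative strains; AcrAB efflux-deficient E. coli SM1411ΔacrAB also tested.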
# Klebsiella pneumoniae = experiment: MIC with/without sub-MIC colistin, Klebsiella pneumoniae
# Outline: as §1
# [2] = test system: methicillin-resistant Staphylococcus aureus (MRSA); experiment: Broth microdilution MIC/MBC, MRSA
# [3] = test system: vancomycin resistant enterococci (VRE) E. faecium; experiment: Broth microdilution MIC/MBC, VRE E. faecium; details: for MIC: read-out: MIC
# [4] = test system: vancomycin resistant enterococci (VRE) E. faecalis; experiment: Broth microdilution MIC/MBC, VRE E. faecalis; details: for MIC: read-out: MIC
# K. pneumoniae = experiment: Broth microdilution MIC, K. pneumoniae
# B. licheniformis = experiment: Broth microdilution MIC/MBC, B. licheniformis; details: Bacillus licheniformis; for MBC: read-out: MBC; for MIC: read-out: MIC
# Pseudomonas aeruginosa [5] = experiment: MIC with/without PMBN, Pseudomonas aeruginosa
# Outline: as §1
# Salmonella Typhimurium = experiment: MIC with/without PMBN, Salmonella Typhimurium
# Outline: as §1
# Acinetobacter baumannii = experiment: MIC with/without PMBN, Acinetobacter baumannii
# Outline: as §1
# P. aeruginosa = experiment: Broth microdilution MIC, P. aeruginosa; details: Pseudomonas aeruginosa
# Clostridium difficile = experiment: MIC against Clostridium difficile, anaerobic broth dilution; details: Clostridioides difficile
# Outline: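 Clinical C. difficile isolates grown anaerobically 48 h at 37 °C, suspended to 0.5 McFarland and diluted 1:300 in pre-reduced supplemented Brain Heart Infusion broth. Compounds serially diluted; plates incubated anaerobically at 37 °C for 48 h. MIC = lowest concentration with no visible growth.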
# [6] = test system: Vancomycin Resistant Staphylococcus aureus (VRSA); experiment: Broth microdilution MIC/MBC, VRSA; details: for MBC / MIC: VRSA
# [7] = E. faecium HM 968 Strain ERV102
# [8] = E. faecium NR31914 Strain E0120
# [9] = E. faecium Patient #1–1 NR-31903
# [10] = E. faecalis NR31972 Strain SF 28073
# [11] = NCIB9375, B. licheniformis Gibson 46 (NCIB 9375) NR-2494
# [12] = NRS712, B. licheniformis NRS 712 NR-2499
compound,measurement,setting,value
O=C(O)[C@@H](Cc1ccccc1)N1C(=O)/C(=C/c2cccc(Oc3ccc(F)cc3)c2)SC1=S [Rh 4],MIC,"Pseudomonas aeruginosa [1]; Pseudomonas aeruginosa ATCC 921, colistin (+) […], read-out: MIC",>64 µM
same,MIC,"Pseudomonas aeruginosa [1]; Pseudomonas aeruginosa, ATCC921",> 128 µM
same,MIC,"Klebsiella pneumoniae; Klebsiella pneumoniae ATCC BAA 2146, colistin (+) […]",>64 µM
same,MIC,"Klebsiella pneumoniae; Klebsiella pneumoniae, BAA2146",> 128 µM
same,MIC50,[2]; 11 MRSA strains,16 µM
same,MIC90,[2]; 11 MRSA strains,32 µM
same,MBC,[2]; MRSA NRS 1,32 µM
same,MIC,[2]; MRSA NRS 1,16 µM
same,MBC,[2]; MRSA NRS 19,32 µM
same,MIC,[2]; MRSA NRS 19,16 µM
same,MBC,[2]; MRSA NRS 37,32 µM
same,MIC,[2]; MRSA NRS 37,32 µM
same,MBC,[2]; MRSA NRS 107,32 µM
same,MIC,[2]; MRSA NRS 107,16 µM
same,MBC,[2]; MRSA NRS 119,32 µM
same,MIC,[2]; MRSA NRS 119,16 µM
same,MBC,[2]; MRSA NRS 382,16 µM
same,MIC,[2]; MRSA NRS 382,16 µM
same,MBC,[2]; MRSA NRS 383,32 µM
same,MIC,[2]; MRSA NRS 383,32 µM
same,MBC,[2]; MRSA NRS 384,64 µM
same,MIC,[2]; MRSA NRS 384,16 µM
same,MBC,[2]; MRSA NRS 385,32 µM
same,MIC,[2]; MRSA NRS 385,16 µM
same,MBC,[2]; MRSA NRS 386,> 64 µM
same,MIC,[2]; MRSA NRS 386,16 µM
same,MBC,[2]; MRSA NRS 387,64 µM
same,MIC,[2]; MRSA NRS 387,16 µM
same,MBC,[3]; E. faecium E417 HM-965,> 64 µM
same,MIC,[3]; E. faecium E417 HM-965,16 µM
same,MBC,[3]; E. faecium E1071 NR-28978,64 µM
same,MIC,[3]; E. faecium E1071 NR-28978,32 µM
same,MBC,[3]; [7],64 µM
same,MIC,[3]; [7],32 µM
same,MBC,[3]; [8],64 µM
same,MIC,[3]; [8],32 µM
same,MBC,[3]; [9],64 µM
same,MIC,[3]; [9],16 µM
same,MBC,[4]; E. faecalis ERV103 HM-934,32 µM
same,MIC,[4]; E. faecalis ERV103 HM-934,32 µM
same,MBC,[4]; [10],32 µM
same,MIC,[4]; [10],32 µM
same,MBC,[4]; E. faecalis R712 HM-335,32 µM
same,MIC,[4]; E. faecalis R712 HM-335,16 µM
same,MBC,[4]; E. faecalis S613 HM-334,32 µM
same,MIC,[4]; E. faecalis S613 HM-334,32 µM
same,MBC,[4]; E. faecalis TX0104 HM-201,32 µM
same,MIC,[4]; E. faecalis TX0104 HM-201,32 µM
same,MIC,K. pneumoniae; K. pneumoniae NR-15417,>128 µM
same,MIC,K. pneumoniae; Klebsiella pneumoniae,> 128 µM
same,MBC,B. licheniformis; [11],16 µM
same,MIC,B. licheniformis; [11],16 µM
same,MBC,B. licheniformis; [12],16 µM
same,MIC,B. licheniformis; [12],16 µM
same,MIC,"Pseudomonas aeruginosa [5]; Pseudomonas aeruginosa ATCC 9721, PMBN (+) 4 μg/mL, read-out: MIC",>64 µM
same,MIC,"Pseudomonas aeruginosa [5]; Pseudomonas aeruginosa, ATCC9721",> 128 µM
same,MIC,"Salmonella Typhimurium; Salmonella Typhimurium ATCC 700720, PMBN (+) 4 μg/mL, read-out: MIC",>128 µM
same,MIC,"Salmonella Typhimurium; Salmonella enterica, ATCC 700720 / TYPHIMURIUM",> 128 µM
same,MIC,"Acinetobacter baumannii; Acinetobacter baumannii ATCC BAA747, PMBN (+) 4 μg/mL, read-out: MIC",>64 µM
same,MIC,"Acinetobacter baumannii; Acinetobacter baumannii ATCC BAA19606, PMBN (+) 4 μg/mL, read-out: MIC",>64 µM
same,MIC,"Acinetobacter baumannii; Acinetobacter baumannii, ATCCBAA747",> 128 µM
same,MIC,"Acinetobacter baumannii; Acinetobacter baumannii, ATCCBAA19606",> 128 µM
same,MIC,P. aeruginosa; ATCC9721,> 128 µM
same,MIC,P. aeruginosa; ATCC15442,> 128 µM
same,MIC,Clostridium difficile; C. difficile HM-88,4 µM
same,MIC,Clostridium difficile; C. difficile HM-745,2 µM
same,MIC,Clostridium difficile; C. difficile HM-746,2 µM
same,MIC,Clostridium difficile; C. difficile Isolate-1 NR-13427,2 µM
same,MIC,Clostridium difficile; C. difficile Toxigenic Strain P8 NR-32888,4 µM
same,MIC50,"[6]; 15 VRSA strains, read-out: MIC 50",16 µM
same,MIC90,"[6]; 15 VRSA strains, read-out: MIC 90",16 µM
same,MBC,"[6]; VRSA 1, read-out: MBC",64 µM
same,MIC,"[6]; VRSA 1, read-out: MIC",16 µM
same,MBC,"[6]; VRSA 2, read-out: MBC",16 µM
same,MIC,"[6]; VRSA 2, read-out: MIC",16 µM
same,MBC,"[6]; VRSA 3a, read-out: MBC",32 µM
same,MIC,"[6]; VRSA 3a, read-out: MIC",16 µM
same,MBC,"[6]; VRSA 3b, read-out: MBC",16 µM
same,MIC,"[6]; VRSA 3b, read-out: MIC",16 µM
same,MBC,"[6]; VRSA 4, read-out: MBC",64 µM
same,MIC,"[6]; VRSA 4, read-out: MIC",16 µM
same,MBC,"[6]; VRSA 5, read-out: MBC",32 µM
same,MIC,"[6]; VRSA 5, read-out: MIC",16 µM
same,MBC,"[6]; VRSA 6, read-out: MBC",32 µM
same,MIC,"[6]; VRSA 6, read-out: MIC",16 µM
same,MBC,"[6]; VRSA 7, read-out: MBC",32 µM
same,MIC,"[6]; VRSA 7, read-out: MIC",16 µM
same,MBC,"[6]; VRSA 8, read-out: MBC",32 µM
same,MIC,"[6]; VRSA 8, read-out: MIC",16 µM
same,MBC,"[6]; VRSA 9, read-out: MBC",32 µM
same,MIC,"[6]; VRSA 9, read-out: MIC",32 µM
same,MBC,"[6]; VRSA 10, read-out: MBC",32 µM
same,MIC,"[6]; VRSA 10, read-out: MIC",16 µM
same,MBC,"[6]; VRSA 11a, read-out: MBC",64 µM
same,MIC,"[6]; VRSA 11a, read-out: MIC",16 µM
same,MBC,"[6]; VRSA 11b, read-out: MBC",64 µM
same,MIC,"[6]; VRSA 11b, read-out: MIC",16 µM
same,MBC,"[6]; VRSA 12, read-out: MBC",64 µM
same,MIC,"[6]; VRSA 12, read-out: MIC",16 µM
same,MBC,"[6]; VRSA 13, read-out: MBC",64 µM
same,MIC,"[6]; VRSA 13, read-out: MIC",16 µM
